Laboratory results reported in ChEMBL document CHEMBL3639063, “Heterocyclic compounds containing a pyrrolopyridine or benzimidazole core” (2015).

Target: Ribosomal protein S6 kinase alpha-3 (Homo sapiens, UniProt P51812)
Test: Kinase Glo Assay: Human RSK2 protein, purchased from Invitrogen, is used to measure kinase activity utilizing Kinase Glo Plus (Promega) a homogeneous assay technology, which uses a luciferin-luciferase based ATP detection reagent to quantify residual ATP. The assay is performed using 0.75 nM His-RSK2, 0.75 uM ATP and 1.0 uM S6 Kinase/RSK Substrate Peptide 1 (Upstate, catalog #12-124), in assay buffer consisting of 25 mM HEPES, pH 7.5, 10 mM MgCl2, 5 mM MnCl2, 50 mM KCl, 0.2% BSA, 0.01% CHAPS, 100 uM Na3VO4, 0.5 mM DTT, and 1% DMSO. Solutions of test compounds at various concentrations are prepared by 1:3 fold serial dilution of a 1 mM solution of compound in DMSO. The DMSO solutions are further diluted with assay buffer to a final concentration of DMSO of 5%.The assay is performed in a 384 well, white, non-binding plate (Corning, catalogue #3574). Solutions of test compounds (10 uL) are transferred to a dry assay plate, followed by addition of 20 uL kinase.

Chain of Ribosomal protein S6 kinase alpha-3 (P51812 whole entry): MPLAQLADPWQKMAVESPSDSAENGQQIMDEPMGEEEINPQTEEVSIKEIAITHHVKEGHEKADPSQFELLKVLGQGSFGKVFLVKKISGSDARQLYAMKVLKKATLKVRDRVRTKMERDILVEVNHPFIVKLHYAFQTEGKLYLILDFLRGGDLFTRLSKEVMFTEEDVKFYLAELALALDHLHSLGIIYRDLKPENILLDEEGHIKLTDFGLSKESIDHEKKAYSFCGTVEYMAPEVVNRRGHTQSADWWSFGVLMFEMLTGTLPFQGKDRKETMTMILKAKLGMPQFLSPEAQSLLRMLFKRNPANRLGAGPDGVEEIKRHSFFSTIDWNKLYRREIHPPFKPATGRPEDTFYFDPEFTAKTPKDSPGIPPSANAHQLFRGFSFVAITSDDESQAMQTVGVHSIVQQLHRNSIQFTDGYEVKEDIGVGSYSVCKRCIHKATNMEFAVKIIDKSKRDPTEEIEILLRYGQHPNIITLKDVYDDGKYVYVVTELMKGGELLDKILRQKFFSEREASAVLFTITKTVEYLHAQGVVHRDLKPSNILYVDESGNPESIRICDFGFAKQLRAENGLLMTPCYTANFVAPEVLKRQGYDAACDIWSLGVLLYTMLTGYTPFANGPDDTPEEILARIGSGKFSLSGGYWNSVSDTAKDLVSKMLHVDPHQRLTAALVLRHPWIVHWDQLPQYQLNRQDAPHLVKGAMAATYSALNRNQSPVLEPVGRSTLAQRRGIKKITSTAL

SMILES | IC50
CC1(C)CNC(=O)c2cc3ccc(C(=O)Nc4cc(C(C)(C)C)on4)nc3n2C1 | 175 nM
O=C(Nc1cccc(-c2c[nH]cn2)c1)c1ccc2cc3n(c2n1)CCCNC3=O | 17 nM
